Measurements: ChEMBL document CHEMBL5727632, “Substituted 1H-imidazo[4,5-b]pyridin-2(3H)-ones and their use as GluN2B receptor modulators” (2020)

Target: Glutamate receptor ionotropic, NMDA 2B (Homo sapiens, UniProt Q05586+Q13224)
Experiment: Standard cell-based calcium flux assay: NMDA receptors are ion channels that are highly permeable to Ca2+ ions, rendering it possible to monitor NMDA receptor function using cell-based calcium flux assay. In this assay, co-agonists glutamate and glycine are added to cells heterologously expressing human GluN1/GluN2B NMDA receptors to initiate cellular Ca2+ influx. The time course of the changes in intracellular calcium is measured using a fluorescent dye and a FLIPR (Fluorometric Imaging Plate Reader) device.Twenty four hours before measurements, the expression of the NMDA receptors in the stable cell line is induced with Tet-On inducible system in the presence of a non-selective NMDA receptor blocker. On the day of the experiment, cell culture media is carefully washed and the cells are loaded with Calcium 5 Dye Kit (Molecular Devices) in dye loading buffer containing 137 mM NaCl, 4 mM KCl, 2 mM CaCl2, 0.5 mM MgCl2 (standard assay) or 1.5 mM MgCl2 (HTS assay), 10 mM HEPES and 5 mM D-glucose; pH 7.4. […]

Glutamate receptor ionotropic, NMDA 2B, sequence (Q13224 whole entry, one chain of several): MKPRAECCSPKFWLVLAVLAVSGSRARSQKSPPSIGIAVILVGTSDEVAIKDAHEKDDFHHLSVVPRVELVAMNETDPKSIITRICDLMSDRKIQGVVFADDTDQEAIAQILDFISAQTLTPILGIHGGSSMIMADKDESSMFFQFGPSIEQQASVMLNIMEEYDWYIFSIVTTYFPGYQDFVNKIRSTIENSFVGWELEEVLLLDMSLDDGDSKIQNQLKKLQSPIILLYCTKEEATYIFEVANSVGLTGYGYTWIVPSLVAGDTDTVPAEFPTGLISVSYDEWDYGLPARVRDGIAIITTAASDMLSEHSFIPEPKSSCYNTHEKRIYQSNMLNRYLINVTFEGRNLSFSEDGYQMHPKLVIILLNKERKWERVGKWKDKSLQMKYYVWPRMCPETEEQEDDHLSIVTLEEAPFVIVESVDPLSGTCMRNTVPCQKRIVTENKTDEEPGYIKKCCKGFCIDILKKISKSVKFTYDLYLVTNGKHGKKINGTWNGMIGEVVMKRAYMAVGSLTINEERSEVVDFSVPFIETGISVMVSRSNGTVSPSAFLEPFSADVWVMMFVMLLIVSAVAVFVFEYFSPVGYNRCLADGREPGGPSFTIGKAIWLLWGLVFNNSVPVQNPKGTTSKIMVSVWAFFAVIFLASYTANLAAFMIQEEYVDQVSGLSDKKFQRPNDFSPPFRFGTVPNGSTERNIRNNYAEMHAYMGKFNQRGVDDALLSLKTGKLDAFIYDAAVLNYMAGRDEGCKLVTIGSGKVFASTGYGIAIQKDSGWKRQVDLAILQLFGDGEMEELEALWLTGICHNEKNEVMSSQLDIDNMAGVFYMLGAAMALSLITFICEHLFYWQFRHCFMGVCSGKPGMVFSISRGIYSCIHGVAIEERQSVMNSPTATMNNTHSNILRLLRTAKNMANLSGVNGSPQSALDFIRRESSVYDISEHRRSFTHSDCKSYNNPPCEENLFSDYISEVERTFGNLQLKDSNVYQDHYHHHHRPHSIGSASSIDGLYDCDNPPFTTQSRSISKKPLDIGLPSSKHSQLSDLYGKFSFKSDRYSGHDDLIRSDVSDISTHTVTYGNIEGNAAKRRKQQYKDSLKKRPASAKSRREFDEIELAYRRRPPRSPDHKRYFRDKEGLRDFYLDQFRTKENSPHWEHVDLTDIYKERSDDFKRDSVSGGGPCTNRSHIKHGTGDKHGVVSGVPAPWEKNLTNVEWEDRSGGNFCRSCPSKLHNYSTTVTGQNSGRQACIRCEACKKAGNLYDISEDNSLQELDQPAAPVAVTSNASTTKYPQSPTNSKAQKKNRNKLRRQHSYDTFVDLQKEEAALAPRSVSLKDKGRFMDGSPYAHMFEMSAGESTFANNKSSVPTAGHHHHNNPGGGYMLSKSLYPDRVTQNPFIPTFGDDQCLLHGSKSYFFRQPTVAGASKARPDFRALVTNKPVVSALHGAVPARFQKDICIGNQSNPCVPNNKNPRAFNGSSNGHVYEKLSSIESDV

- IC50: 1290 nM
Structure (SMILES): Cn1c(=O)n(CC(=O)N2CCC2)c2cc(-c3cc(OCCF)cc(C(F)(F)F)c3)cnc21
